The assay has as its system NRVM. Briefly: PE-mediated cardiomyocyte hypertrophy in NRVM (cell area measurement). Type of assay: cell-based, rat. The settings on record: equimolar doses (500 nM), PE 100 μM, 48 hours. Here is the method:
NRVM were isolated from the hearts of 2 day old Sprague-Dawley rat pups (Charles River) and maintained under standard conditions as described (Haldar et al., 2010). The cells were differentially plated for 1.5 h in cell culture dishes to remove contaminating non-myocytes. Unless otherwise stated, NRVM were plated at a density of 10^5 cells/mL. Cells were initially plated in growth medium (DMEM supplemented with 5% FBS, 100 U/mL penicillin-streptomycin, and 2 mM L-glutamine) for 24-36 hours and maintained in serum-free media thereafter (DMEM supplemented with 0.1% BSA, 1% insulin-transferrin-selenium liquid media supplement (Sigma 13146), 100 U/mL penicillin-streptomycin, and 2 mM L-glutamine). Media was changed every 2-3 days. Prior to stimulation with agonists, NRVM were maintained in serum-free medium for 48-72 hours. For hypertrophic stimulation, NRVM were incubated with JQ1 versus DMSO at indicated concentrations for 6 h followed by stimulation with PE (100 μM) for indicated timepoints.
NRVM were plated on glass coverslips in 6-well dishes at a density of 10^5 cells/mL. After treatments, cells were briefly fixed in PBS containing 2% PFA, permeabilized with PBST/0.1% Triton X-100, and blocked in PBST/5% horse serum. Primary antibody was anti-sarcomeric α-actinin (Sigma A7811) at 1:800. Fluorophore-tagged anti-mouse secondary antibody (α-mouse Alexa 488 green) was used at 1:1000 dilution. Coverslips were mounted on glass slides with mounting media containing DAPI. Quantitation of cardiomyocyte cell surface area was performed on α-actinin-stained cardiomyocytes using fluorescent microscopy and NIH Image J software as previously described (Liang et al., 2001). Analysis consisted of at least 100 cardiomyocytes in 20-30 fields at 400× magnification. This process was replicated in a least three independent experiments, and the data were combined.
As for `COc1cc(OC)c2c(=O)[nH]c(-c3cc(C)c(OCCO)c(C)c3)nc2c1` [RVX-208], the “inhibition of agonist-induced cardiomyocyte hypertrophy (cell area)” value (“inhibition” for short) is on record as “inhibition of agonist-induced cardiomyocyte hypertrophy was indeed a class effect”. Take `COc1cc2c(cc1-c1c(C)noc1C)ncc1[nH]c(=O)n([C@H](C)c3ccccn3)c12` [iBET-151]: the “inhibition” value is “inhibition of agonist-induced cardiomyocyte hypertrophy was indeed a class effect”. As to `CCNC(=O)C[C@@H]1N=C(c2ccc(Cl)cc2)c2cc(OC)ccc2-n2c(C)nnc21` [iBET], the “inhibition” value is “inhibition of agonist-induced cardiomyocyte hypertrophy was indeed a class effect”.

Source of the values: patent publication US20160095867A1, “BET INHIBITION THERAPY FOR HEART DISEASE” (DANA-FARBER CANCER INSTITUTE, INC., priority 2013, published 2016).
